Structures can show the parent of a compound that is named as a salt.
Experiments:
[1] = target: T1, human mGluR5a receptor (Homo sapiens, UniProt P41594); experiment: Functional Assay 2: Ca2+ mobilization, HEK cells with human mGluR5a receptor (H10H cell line); format: cell-based; conditions: for EC50 / Emax: H10H cell line; for EC50: glutamate EC20; for Emax: HEK293, maximum average response at a single concentration, relative to glutamate ECMax
T1 construct: host or cells: HEK293A (monoclones H10H and H12H)
Experimental: Human mGluR5a cDNA in pCMV6-XL6 mammalian expression plasmid was purchased from OriGene Technologies, Inc. (catalogue number SC326357) and subcloned into pcDNA3.1(−). […] Monoclones were named for the species (“H” for human) plus the location on the plate (e.g. “10H”).
The following day, the growth medium was removed and the cells were washed with assay buffer containing 1× Hank's balanced salt solution (Invitrogen, Carlsbad, Calif.), 20 mM HEPES, 2.5 mM probenecid, pH 7.4 and left with 20 μL of this reagent. Following this step, the cells were loaded with calcium indicator dye, fluo-4 AM, to a final concentration of 2 μM and incubated for 40-45 min at 37° C. The dye solution was removed and replaced with assay buffer. Cell plates were held for 10-15 min at room temperature and were then loaded into the Functional Drug Screening System 6000 (FDSS 6000, Hamamatsu, Japan).
After establishment of a fluorescence baseline for about 3 seconds, the compounds of the present invention were added to the cells, and the response in cells was measured. 2.3 minutes later an EC20 concentration of the mGluR5 receptor agonist glutamate was added to the cells, and the response of the cells was measured for about 1.7 minutes. All test compounds were dissolved and diluted to a concentration of 10 mM in 100% DMSO and then serially diluted into assay buffer for a 2× stock solution in 0.6% DMSO; stock compounds were then added to the assay for a final DMSO concentration of 0.3% after the first addition to the assay well. Calcium fluorescence measures were recorded as fold over basal fluorescence; raw data was then normalized to the maximal response to glutamate.
The concentration-response curves of compounds of the present invention, obtained in the presence of EC20 of mGluR5 receptor agonist glutamate to determine positive allosteric modulation, were generated using Microsoft Excel with IDBS XLfit add-ins. The raw data file containing all time points was used as the data source in the analysis template. This was saved by the FDSS as a tab-delimitted text file. Data were normalized using a static ratio function (F/F0) for each measurement of the total 350 values per well divided by each well's initial value. […] This is sufficient time to capture the peak amplitude of the cellular calcium response. […] Each of the three values collected at each concentration of test compound were weighted evenly. […] These two methods are in good agreement for curves with a clear plateau at the high concentration range.

[2] = target: T2, human mGluR5 receptor (Homo sapiens, UniProt P41594); experiment: Functional Assay 1: intracellular Ca2+ mobilization, positive allosteric modulation of glutamate EC20 response; format: cell-based; conditions: for Emax: maximum % effect relative to glutamate ECMax
T2 construct: expressed in transfected cells; host or cells: HEK-293

[3] = human mGluR5 over-expressing HEK-293 cells, glutamate EC20 (~0.2 μM), updated value

T1 sequence (P41594 21-1180 isoform P41594-2 limits assumed): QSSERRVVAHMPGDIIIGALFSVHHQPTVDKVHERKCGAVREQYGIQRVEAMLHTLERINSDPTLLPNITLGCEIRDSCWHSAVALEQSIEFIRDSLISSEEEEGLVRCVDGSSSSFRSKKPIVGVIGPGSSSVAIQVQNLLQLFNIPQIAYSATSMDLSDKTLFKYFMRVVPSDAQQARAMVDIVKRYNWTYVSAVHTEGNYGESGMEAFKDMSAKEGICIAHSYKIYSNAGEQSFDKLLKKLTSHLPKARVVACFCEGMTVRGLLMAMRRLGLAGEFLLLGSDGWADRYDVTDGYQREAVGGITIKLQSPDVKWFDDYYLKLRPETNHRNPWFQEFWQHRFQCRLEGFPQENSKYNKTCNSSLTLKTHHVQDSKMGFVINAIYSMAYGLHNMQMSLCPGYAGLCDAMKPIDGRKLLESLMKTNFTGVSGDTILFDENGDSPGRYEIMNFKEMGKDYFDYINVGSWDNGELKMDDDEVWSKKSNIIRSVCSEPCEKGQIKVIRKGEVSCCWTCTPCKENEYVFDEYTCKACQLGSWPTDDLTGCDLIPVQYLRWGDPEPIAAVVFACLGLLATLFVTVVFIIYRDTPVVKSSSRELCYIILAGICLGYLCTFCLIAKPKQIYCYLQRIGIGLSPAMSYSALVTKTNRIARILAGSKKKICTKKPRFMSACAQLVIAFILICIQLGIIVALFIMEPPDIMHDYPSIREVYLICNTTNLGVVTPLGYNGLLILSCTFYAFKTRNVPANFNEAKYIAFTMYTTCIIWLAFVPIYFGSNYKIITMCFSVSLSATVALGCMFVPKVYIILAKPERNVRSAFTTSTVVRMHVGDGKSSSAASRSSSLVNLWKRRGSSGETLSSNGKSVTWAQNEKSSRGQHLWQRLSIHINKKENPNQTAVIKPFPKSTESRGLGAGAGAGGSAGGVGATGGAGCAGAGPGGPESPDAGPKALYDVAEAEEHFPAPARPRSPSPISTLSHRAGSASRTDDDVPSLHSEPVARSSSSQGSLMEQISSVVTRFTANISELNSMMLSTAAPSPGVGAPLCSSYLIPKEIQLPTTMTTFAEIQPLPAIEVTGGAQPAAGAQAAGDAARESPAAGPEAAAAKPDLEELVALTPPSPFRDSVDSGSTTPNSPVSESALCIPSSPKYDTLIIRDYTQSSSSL
T2 sequence (P41594 21-1180 isoform P41594-2 limits assumed): as above

Row | Structure (SMILES) | EC50 [1] [µM] | Emax [1] [%] | further results
1 | O=C1c2sc(OCc3ccccc3)nc2CCN1c1ccc(F)cc1 [Compound 1, 5-(4-fluorophenyl)-6,7-dihydro-2-(phenylmethoxy)-thiazolo[5,4-c]pyridin-4(5H)-one] | 0.309 | 57 | EC50 [2, 3]: 1.29 µM; Emax [2]: 64%; EC50 ([2]; original value, which was updated as compound was further tested): 0.851 µM
2 | O=C1NCCc2nc(COc3ccccc3)sc21 [Compound 2, 6,7-dihydro-2-(phenoxymethyl)-thiazolo[5,4-c]pyridin-4(5H)-one] | > 10 | 84 | melting point: 170.5 °C
3 | O=C1c2sc(COc3ccccc3)nc2CCN1CC1CCOCC1 [Compound 3, 6,7-dihydro-2-(phenoxymethyl)-5-[(tetrahydro-2H-pyran-4-yl)methyl]-thiazolo[5,4-c]pyridin-4(5H)-one] | 2.29 | 78 | 
4 | COCCN1CCc2nc(COc3ccccc3)sc2C1=O [Compound 4, 6,7-dihydro-5-(2-methoxyethyl)-2-(phenoxymethyl)-thiazolo[5,4-c]pyridin-4(5H)-one] | > 10 | 69 | 
5 | Cc1ccc(N2CCc3nc(COc4ccccc4)sc3C2=O)nc1 [Compound 5, 6,7-dihydro-5-(5-methyl-2-pyridinyl)-2-(phenoxymethyl)-thiazolo[5,4-c]pyridin-4(5H)-one] | 1.2 | 84.5 | 
6 | O=C1c2sc(COc3ccc(F)cc3)nc2CCN1c1ccc(F)cc1 [Compound 6, 2-[(4-fluorophenoxy)methyl]-5-(4-fluorophenyl)-6,7-dihydro-thiazolo[5,4-c]pyridin-4(5H)-one] | 0.457 | 75 | melting point: > 280 °C
7 | O=C1c2sc(COc3ccccc3)nc2CCCN1c1ccc(F)cc1 [Compound 11, 5-(4-fluorophenyl)-5,6,7,8-tetrahydro-2-(phenoxymethyl)-4H-thiazolo[5,4-c]azepin-4-one] | 0.214 | 81 | melting point: 120.4 °C
8 | O=C1c2sc(OCc3ccccc3)nc2CCN1Cc1ccc(F)cc1F [Compound 13, 5-[(2,4-difluorophenyl)methyl]-6,7-dihydro-2-(phenylmethoxy)-thiazolo[5,4-c]pyridin-4(5H)-one] | 1.86 | 48 | melting point: 108 to 111.2 °C
9 | O=C1c2sc(OCc3cccc(F)c3)nc2CCN1c1ccc(F)cc1 [Compound 19, 5-(4-fluorophenyl)-2-[(3-fluorophenyl)methoxy]-6,7-dihydro-thiazolo[5,4-c]pyridin-4(5H)-one] | 0.214 | 38 | melting point: 127.4 to 128.9 °C
10 | CN1CCc2nc(OCc3ccccc3)sc2C1=O [Compound 24, 6,7-dihydro-5-methyl-2-(phenylmethoxy)-thiazolo[5,4-c]pyridin-4(5H)-one] | 3.47 | 45 | 
11 | C[C@@H](N1CCc2nc(COc3ccc(F)cc3)sc2C1=O)C(C)(C)C [Compound 34, 2-[(4-fluorophenoxy)methyl]-6,7-dihydro-5-[(1R)-1,2,2-trimethylpropyl]-thiazolo[5,4-c]pyridin-4(5H)-one] | 1.48 | 48 | 
12 | COc1ccccc1N1CCc2nc(COc3ccccc3F)sc2C1=O [Compound 36, 2-[(2-fluorophenoxy)methyl]-6,7-dihydro-5-(2-methoxyphenyl)-thiazolo[5,4-c]pyridin-4(5H)-one] | 2 | 71 | 
13 | O=C1c2sc(COc3ccccc3)nc2CCN1c1ccccn1 [Compound 45, 6,7-dihydro-2-(phenoxymethyl)-5-(2-pyridinyl)-thiazolo[5,4-c]pyridin-4(5H)-one] | 0.832 | 85 | 
14 | O=C1c2sc(COc3ccccc3)nc2CCN1c1ccc(F)cn1 [Compound 47, 5-(5-fluoro-2-pyridinyl)-6,7-dihydro-2-(phenoxymethyl)-thiazolo[5,4-c]pyridin-4(5H)-one] | 0.251 | 82 | 
15 | O=C1c2sc(COc3ccccc3)nc2CCN1c1cccnc1 [Compound 48, 6,7-dihydro-2-(phenoxymethyl)-5-(3-pyridinyl)-thiazolo[5,4-c]pyridin-4(5H)-one] | 4.68 | 78 | 
16 | O=C1c2sc(COc3ccccc3)nc2CCN1c1ccncc1 [Compound 49, 6,7-dihydro-2-(phenoxymethyl)-5-(4-pyridinyl)-thiazolo[5,4-c]pyridin-4(5H)-one] |  |  | pEC50 [1]: 5.57

Row | Structure (SMILES) | EC50 [1] [µM] | Emax [1] [%] | further results
17 | O=C1c2sc(COc3ccccc3)nc2CCN1c1ncccc1F [Compound 50, 5-(3-fluoro-2-pyridinyl)-6,7-dihydro-2-(phenoxymethyl)-thiazolo[5,4-c]pyridin-4(5H)-one] | 1.38 | 69 | 
18 | Cc1ccnc(N2CCc3nc(COc4ccccc4)sc3C2=O)c1 [Compound 51, 6,7-dihydro-5-(4-methyl-2-pyridinyl)-2-(phenoxymethyl)-thiazolo[5,4-c]pyridin-4(5H)-one] | 3.63 | 75 | 
19 | Cc1cccnc1N1CCc2nc(COc3ccccc3)sc2C1=O [Compound 52, 6,7-dihydro-5-(3-methyl-2-pyridinyl)-2-(phenoxymethyl)-thiazolo[5,4-c]pyridin-4(5H)-one] | 1.35 | 82 | 
20 | O=C1c2sc(COc3ccccc3)nc2CCN1c1ccncc1F [Compound 58, 5-(3-fluoro-4-pyridinyl)-6,7-dihydro-2-(phenoxymethyl)-thiazolo[5,4-c]pyridin-4(5H)-one] | 0.562 | 71 | 
21 | CC(C)N1CCc2nc(COc3ccccc3)sc2C1=O [Compound 63, 6,7-dihydro-5-(1-methylethyl)-2-(phenoxymethyl)-thiazolo[5,4-c]pyridin-4(5H)-one] | 2.63 | 37.5 | 
22 | CC(C)N1CCc2nc(COc3cccc(F)c3)sc2C1=O [Compound 64, 2-[(3-fluorophenoxy)methyl]-6,7-dihydro-5-(1-methylethyl)-thiazolo[5,4-c]pyridin-4(5H)-one] | > 30.2 | 18 | 
23 | O=C1NCCc2nc(OCc3ccccc3)sc21 [Compound 65, 6,7-dihydro-2-(phenylmethoxy)-thiazolo[5,4-c]pyridin-4(5H)-one] |  |  | EC50 [2, 3]: > 30.2 µM; Emax [2]: 25%
24 | N#Cc1cc(COc2nc3c(s2)C(=O)NCC3)ccc1F [Compound 66, 2-fluoro-5-[[(4,5,6,7-tetrahydro-4-oxothiazolo[5,4-c]pyridin-2-yl)oxy]methyl]-benzonitrile] |  |  | EC50 [2, 3]: > 30.2 µM; Emax [2]: 24%
25 | Cc1ccccc1COc1nc2c(s1)C(=O)NCC2 [Compound 67, 6,7-dihydro-2-[(2-methylphenyl)methoxy]-thiazolo[5,4-c]pyridin-4(5H)-one] | > 30.2 | 18 | 
26 | Cc1cccc(COc2nc3c(s2)C(=O)NCC3)c1 [Compound 68, 6,7-dihydro-2-[(3-methylphenyl)methoxy]-thiazolo[5,4-c]pyridin-4(5H)-one] | > 30.2 | 20 | 
27 | O=C1NCCc2nc(OCc3ccccc3F)sc21 [Compound 69, 2-[(2-fluorophenyl)methoxy]-6,7-dihydro-thiazolo[5,4-c]pyridin-4(5H)-one trifluoroacetate] |  |  | EC50 [2, 3]: > 30.2 µM; Emax [2]: 15%
28 | O=C1NCCc2nc(OCc3cccc(F)c3)sc21 [Compound 70, 2-[(3-fluorophenyl)methoxy]-6,7-dihydro-thiazolo[5,4-c]pyridin-4(5H)-one trifluoroacetate] |  |  | EC50 [2, 3]: > 30.2 µM; Emax [2]: 15%
29 | O=C1NCCc2nc(OCc3ccc(F)cc3)sc21 [Compound 71, 2-[(4-fluorophenyl)methoxy]-6,7-dihydro-thiazolo[5,4-c]pyridin-4(5H)-one trifluoroacetate] |  |  | EC50 [2, 3]: > 30.2 µM; Emax [2]: 8%
30 | Cc1ccc(COc2nc3c(s2)C(=O)NCC3)cc1 [Compound 72, 6,7-dihydro-2-[(4-methylphenyl)methoxy]-thiazolo[5,4-c]pyridin-4(5H)-one] |  |  | EC50 [2, 3]: > 30.2 µM; Emax [2]: 10%
31 | COc1cccc(COc2nc3c(s2)C(=O)N(c2ccc(F)cc2F)CC3)c1 [Compound 80, 5-(2,4-difluorophenyl)-6,7-dihydro-2-[(3-methoxyphenyl)methoxy]-thiazolo[5,4-c]pyridin-4(5H)-one] |  |  | EC50 [2, 3]: > 30.2 µM; Emax [2]: 26%
